Measurements published in patent US20210353749A1, “GUANABENZ AS AN ADJUVANT FOR IMMUNOTHERAPY” (UNIVERSITÉ CATHOLIQUE DE LOUVAIN, priority 2018, published 2021).

Columns and labels:
TiRP tumor = test: TiRP melanoma model with adoptive cell transfer of activated P1A-specific CD8+ T cells; assay type: in vivo, mouse; conditions: alprenolol 5 mg/kg i.p. daily with ACT
Excerpt: TiRP mice: TiRP mice have been created by crossing Ink4a/Arf^flox/flox mice with mice carrying a transgenic construct controlled by the tyrosinase promoter and driving the expression of H-Ras^12V and Trap1a which encodes a MAGE-type tumor antigen P1A; the promoter is separated from the coding region by a stop cassette made of a floxed self-deleting CreER (Huijbers et al., 2006, Cancer Res 66, 3278-3286). Those mice were backcrossed to a B10.D2 background and bred to homozygosity. TCRP1A mice heterozygous for the H-2Ld/P1A35-43-specific TCR transgene were kept on the B10.D2; Rag1^−/− background (Shanker et al., 2004, J Immunol 172, 5069-5077). All mice used in this study were produced under specific pathogen free (SPF) conditions at the animal facility of the Ludwig Institute for Cancer Research. All the rules concerning animal welfare have been respected according to the 2010/63/EU Directive. All procedures were performed with the approval of the local Animal Ethical Committee, with reference 2015/UCL/MD/15.
A fresh solution of 40H-Tamoxifen was prepared by dissolving 40H-Tamoxifen (Imaginechem) in 100% ethanol and mineral oil (ratio 1:9) followed by 30-min sonication, and injected subcutaneously (2 mg/200 μL per mouse) in the neck area of gender-matched 7 weeks old TiRP mice. Tumor appearance was monitored daily and tumors were measured three times/week. Tumor volume (in mm^3) was calculated by the following formula: Volume=width^2×length/2. Tumor-bearing TiRP mice were randomized based on the tumor size when average volume was 400 mm^3, 500 mm^3 or 1000 mm^3 as indicated.
(§1) T cells were incubated with guanabenz (10, 20, or 40 μM) for 16 h to 24 h as indicated. Mice received a daily intra-peritoneal injection of guanabenz (5 mg/kg) or vehicle (PBS) from the day of randomization (and the day of ACT when applicable) until the day of sacrifice.
For the adoptive cell transfer (ACT), P1A-specific (TCRP1A) CD8^+ T cells were isolated from spleens and lymph nodes of TCRP1A mice as described hereinabove, and stimulated in vitro by co-culture with irradiated (10.000 rads) L1210-P1A-B7.1 cells (Gajewski et al., 1995, J Immunol 154, 5637-5648) at 1:2 ratio (0.5×10^5 CD8^+ T cells and 10^5 L1210-P1A-B7.1 cells per well in 48-well plates) in IMDM (GIBCO) containing 10% fetal bovine serum supplemented with L-arginine (0.55 mM, Merck), L-asparagine (0.24 mM, Merck), glutamine (1.5 mM, Merck), betamercaptoethanol (50 μM, Sigma), 50 UmL^−1 penicillin and […] (Life Technologies). Four days later, TCRP1A CD8^+ T cells were purified on a Lymphoprep gradient (StemCell) and 10^7 living cells were injected intravenously in 200 μL PBS in TiRP-tumor bearing mice on the day of randomization.
Mice received a daily intra-peritoneal injection of alprenolol (5 mg/kg) or vehicle (PBS) from the day of ACT until the day of sacrifice.
T cells were incubated with sunitinib (0.1, 0.3, 0.8, 2.5 or 4 μM) for 16 h as indicated. Mice received a daily dose of sunitinib (20 mg/kg) or vehicle (PBS) by oral gavage from the day of ACT until the day of sacrifice.

[1] = system: Mouse TCRP1A CD8+ T cells; test: CD107 cytotoxicity assay (degranulation assay), mouse T cells; assay type: cell-based; conditions: alprenolol 5 μM or 20 μM, 16 hours, vs control (PBS); FIG. 11A
Procedure: Mouse TCRP1A CD8^+ T cells: P1A-specific (TCRP1A) CD8^+ T cells were isolated from spleens and lymph nodes of TCRP1A mice using anti-mouse CD8a (Ly-2) MicroBeads (Miltenyi Biotec).
CD107 cytotoxicity assay (Degranulation assay): TCRP1A CD8^+ T cells were plated at 50,000 cells per well in a 96 U plate with different concentrations of guanabenz and incubated at 37° C. overnight prior to their use in the assay on the next day. On the day of the assay, the culture supernatant was removed from the cells and the cells were washed once with complete medium to remove the drug. The target cells L1210-P1A-B7.1 were added to the wells at a ratio of 1:1. Control wells containing either only T cells or target cells were also included for each plate. CD107a-APC was added to each well at the same time as addition of the target cells. The plate was then incubated at 37° C. for 90 minutes. At the end of the incubation period the cells were harvested and washed once with PBS. They were stained with anti-mouse CD8-Bv421 antibody for 15 minutes. The cells were then washed and resuspended in PBS and analyzed using FACS Fortessa flow cytometer. Human CD8^+ T cell degranulation was evaluated in a similar way. To induce CD8^+ T cell degranulation, T2 cells loaded with synthetic WT1126-134 peptide (10^6 T2 cells were incubated for 1 hour in 200 μL Optimem medium with 100 μmol/L synthetic peptide at 37° C.) were used as target cells.
as §1
CD107 cytotoxicity assay (Degranulation assay): the assay was carried out as described hereinabove (see Example 1) with different 20 μM guanabenz or different concentrations of alprenolol or sunitinib, as indicated.
T cells were incubated with 20 μM guanabenz for 16 h as indicated.
T cells were incubated with alprenolol (5 or 20 μM) for 16 h as indicated. […]

C=CCc1ccccc1OCC(O)CNC(C)C (stereo not drawn) [alprenolol]
tumor infiltration of CD8+ T cells (tetramer+ CD8+ T cells among total CD45+ cells) (TiRP tumor; 7 days after ACT, FIG. 11C): not increased | tumor growth (TiRP tumor; day 0 to day 10, vs ACT alone, FIG. 11B): not significantly decreased | T cell degranulation (FACS detection of CD107a) [1]: did no significantly increase
